Test results reported in patent publication US11518760B2 (Liverpool School of Tropical Medicine, priority 2017, dated 2022).

Test system: C6/36 Aedes albopictus cell line infected with Wolbachia pipientis (Wolbachia strain wAlbB)
Test: In vitro insect cell line assay (anti-Wolbachia screen, SYTO 11 high content imaging)
Assay type: cell-based
Settings: 168 h; C6/36 Aedes albopictus cells infected with Wolbachia pipientis wAlbB, 7 days incubation, SYTO 11 imaging; read-out: In vitro anti-Wolbachia activity
How it was run: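 SYTO 11 staining (15 min), high-content imaging and texture analysis were the read-out on day 7. Before that, C6/36 mosquito cells carrying Wolbachia strain wAlbB were incubated at 26 °C with test compound at 5 μM final, alongside DMSO-only control wells.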

| Structure (SMILES) | EC50 [nM] |
| --- | --- |
| CC1CCN1c1nc(NCc2cccnc2C(F)(F)F)c2cccnc2n1 (stereo not drawn) [Example 172, 2-(2-methylazetidin-1-yl)-N-((2-(trifluoromethyl)pyridin-3-yl)methyl)pyrido[2,3-d]pyrimidin-4-amine] | 0.01 to 1 |
| CC1(C)CCN1c1nc(NCc2cccnc2C(F)(F)F)c2cccnc2n1 [Example 173, 2-(2,2-dimethylazetidin-1-yl)-N-((2-(trifluoromethyl)pyridin-3-yl)methyl)pyrido[2,3-d]pyrimidin-4-amine] | 1 to 10 |
| FC(F)(F)c1ncccc1CNc1nc(N2CCCC2)nc2ncccc12 [Example 174, 2-(pyrrolidin-1-yl)-N-((2-(trifluoromethyl)pyridin-3-yl)methyl)pyrido[2,3-d]pyrimidin-4-amine] | 0.01 to 1 |
| CN(c1nc(NCc2cccnc2C(F)(F)F)c2cccnc2n1)C1CC1 [Example 175, N^2-cyclopropyl-N^2-methyl-N^4-((2-(trifluoromethyl)pyridin-3-yl)methyl)pyrido[2,3-d]pyrimidine-2,4-diamine] | 1 to 10 |
| CC(C)N(C)c1nc(NCc2cccnc2C(F)(F)F)c2ccccc2n1 [Example 176, N^2-isopropyl-N^2-methyl-N^4-((2-(trifluoromethyl)pyridin-3-yl)methyl)quinazoline-2,4-diamine] | 100 to 1000 |
| Cc1nc(NCc2cccnc2C(F)(F)F)c2cccnc2n1 [Example 177, 2-methyl-N-((2-(trifluoromethyl)pyridin-3-yl)methyl)pyrido[2,3-d]pyrimidin-4-amine] | 1000 to 100000 |
| CC(C)[S+]([O-])c1nc(NCc2cccnc2C(F)(F)F)c2cccnc2n1 (stereo not drawn) [Example 178, 2-(isopropylsulfinyl)-N-((2-(trifluoromethyl)pyridin-3-yl)methyl)pyrido[2,3-d]pyrimidin-4-amine] | 1000 to 100000 |
| CC(C)S(=O)(=O)c1nc(NCc2cccnc2C(F)(F)F)c2cccnc2n1 [Example 179, 2-(isopropylsulfonyl)-N-((2-(trifluoromethyl)pyridin-3-yl)methyl)pyrido[2,3-d]pyrimidin-4-amine] | 10 to 100 |
| FC(F)(F)c1ncccc1CNc1ncnc2ncc(Br)cc12 [Example 180] | 1000 to 100000 |
| Cc1ccc(-c2cnc3ncnc(NCc4cccnc4C(F)(F)F)c3c2)cn1 [Example 181] | 1000 to 100000 |
| Oc1nc(NCc2cccnc2C(F)(F)F)c2cccnc2n1 [Example 182, 4-(((2-(trifluoromethyl)pyridin-3-yl)methyl)amino)pyrido[2,3-d]pyrimldin-2-ol] | 1000 to 100000 |
| CC(C)Nc1nc(N2CCC2c2ccccc2C(F)(F)F)c2cccnc2n1 (stereo not drawn) [Example 183, N-isopropyl-4-(2-(2-(trifluoromethyl)phenyl)azetidin-1-yl)pyrido[2,3-d]pyrimidin-2-amine] | 1 to 10 |
| CC(C)N(C)c1nc(N2CCC2c2ccccc2C(F)(F)F)c2cccnc2n1 (stereo not drawn) [Example 184, N-isopropyl-N-methyl-4-(2-(2-(trifluoromethyl)phenyl)azetidin-1-yl)pyrido[2,3-d]pyrimidin-2-amine] | 0.01 to 1 |
| CC(C)Nc1nc(N2CCCCC2c2ccccc2C(F)(F)F)c2cccnc2n1 (stereo not drawn) [Example 185, N-isopropyl-4-(2-(2-(trifluoromethyl)phenyl)piperidin-1-yl)pyrido[2,3-d]pyrimidin-2-amine] | 1000 to 100000 |
| CC(C)N(C)c1nc(N2CCCCC2c2ccccc2C(F)(F)F)c2cccnc2n1 (stereo not drawn) [Example 186, N-isopropyl-N-methyl-4-(2-(2-(trifluoromethyl)phenyl)piperidin-1-yl)pyrido[2,3-d]pyrimidin-2-amine] | 1000 to 100000 |
| CC(C)Nc1nc(N2CCOCC2c2ccccc2C(F)(F)F)c2cccnc2n1 (stereo not drawn) [Example 187, N-isopropyl-4-(3-(2-(trifluoromethyl)phenyl)morpholino)pyrido[2,3-d]pyrimidin-2-amine] | 1000 to 100000 |
| CC(C)N(C)c1nc(N2CCOCC2c2ccccc2C(F)(F)F)c2cccnc2n1 (stereo not drawn) [Example 188, N-isopropyl-N-methyl-4-(3-(2-(trifluoromethyl)phenyl)morpholino)pyrido[2,3-d]pyrimidin-2-amine] | 1000 to 100000 |
| CC(C)Nc1nc(N2CCCN2c2ccccc2C(F)(F)F)c2cccnc2n1 [Example 189, N-isopropyl-4-(2-(2-(trifluoromethyl)phenyl)pyrazolidin-1-yl)pyrido[2,3-d]pyrimidin-2-amine] | 1000 to 100000 |
| CC(C)N(C)c1nc(N2CCCN2c2ccccc2C(F)(F)F)c2cccnc2n1 [Example 190, N-isopropyl-N-methyl-4-(2-(2-(trifluoromethyl)phenyl)pyrazolidin-1-yl)pyrido[2,3-d]pyrimidin-2-amine] | 100 to 1000 |
| FC(F)Sc1nc(NCc2cccnc2C(F)(F)F)c2cccnc2n1 [Example 191, 2-((difluoromethyl)thio)-N-((2-(trifluoromethyl)pyridin-3-yl)methyl)pyrido[2,3-d]pyrimidin-4-amine] | 100 to 1000 |

| Structure (SMILES) | EC50 [nM] |
| --- | --- |
| FC(F)(F)c1ncccc1CNc1nc(N2CCOCC2)nc2ncccc12 [Example 192, 2-morpholino-N-((2-(trifluoromethyl)pyridin-3-yl)methyl)pyrido[2,3-d]pyrimidin-4-amine] | 10 to 100 |
| CC1COCCN1c1nc(NCc2cccnc2C(F)(F)F)c2cccnc2n1 (stereo not drawn) [Example 193, 2-(3-methylmorpholino)-N-((2-(trifluoromethyl)pyridin-3-yl)methyl)pyrido[2,3-d]pyrimidin-4-amine] | 1 to 10 |
| FC1(F)CCN(c2nc(NCc3cccnc3C(F)(F)F)c3cccnc3n2)C1 [Example 194, 2-(3,3-difluoropyrrolidin-1-yl)-N-((2-(trifluoromethyl)pyridin-3-yl)methyl)pyrido[2,3-d]pyrimidin-4-amine] | 1 to 10 |
| FC1CCN(c2nc(NCc3cccnc3C(F)(F)F)c3cccnc3n2)CC1 [Example 195, 2-(4-fluoropiperidin-1-yl)-N-((2-(trifluoromethyl)pyridin-3-yl)methyl)pyrido[2,3-d]pyrimidin-4-amine] | 1 to 10 |
| FC1(F)CCN(c2nc(NCc3ccccc3C(F)(F)F)c3cccnc3n2)CC1 [Example 196, 2-(4,4-difluoropiperidin-1-yl)-N-(2-(trifluoromethyl)benzyl)pyrido[2,3-d]pyrimidin-4-amine] | 0.01 to 1 |
| FC1(F)CCN(c2nc(NCc3cccnc3C(F)(F)F)c3cccnc3n2)CC1 [Example 197, 2-(4,4-difluoropiperidin-1-yl)-N-((2-(trifluoromethyl)pyridin-3-yl)methyl)pyrido[2,3-d]pyrimidin-4-amine] | 1 to 10 |
| FC(F)(F)c1ccccc1CNc1nc(N2CCC(Cl)CC2)nc2ncccc12 [Example 198, 2-(4-chloropiperidin-1-yl)-N-(2-(trifluoromethyl)benzyl)pyrido[2,3-d]pyrimidin-4-amine] | 1 to 10 |
| FC(F)(F)c1ncccc1CNc1nc(N2CCC(Cl)CC2)nc2ncccc12 [Example 199, 2-(4-chloropiperidin-1-yl)-N-((2-(trifluoromethyl)pyridin-3-yl)methyl)pyrido[2,3-d]pyrimidin-4-amine] | 1 to 10 |
| FC1CN(c2nc(NCc3cccnc3C(F)(F)F)c3cccnc3n2)C1 [Example 200, 2-(3-fluoroazetidin-1-yl)-N-((2-(trifluoromethyl)pyridin-3-yl)methyl)pyrido[2,3-d]pyrimidin-4-amine] | 10 to 100 |
| FC1(F)CN(c2nc(NCc3cccnc3C(F)(F)F)c3cccnc3n2)C1 [Example 201, 2-(3,3-difluoroazetidin-1-yl)-N-((2-(trifluoromethyl)pyridin-3-yl)methyl)pyrido[2,3-d]pyrimidin-4-amine] | 10 to 100 |
| FC(F)(F)c1ncccc1CNc1nc(N2CC(C(F)(F)F)C2)nc2ncccc12 [Example 202, 2-(3-(trifluoromethyl)azetidin-1-yl)-N-((2-(trifluoromethyl)pyridin-3-yl)methyl)pyrido[2,3-d]pyrimidin-4-amine] | 1 to 10 |
| FC(F)(F)c1cnn(-c2nc(NCc3cccnc3C(F)(F)F)c3cccnc3n2)c1 [Example 203, 2-(4-(trifluoromethyl)-1H-pyrazol-1-yl)-N-((2-(trifluoromethyl)pyridin-3-yl)methyl)pyrido[2,3-d]pyrimidin-4-amine] | 100 to 1000 |
| O=C(Nc1ccc(F)cc1)Nc1nc(NCc2cccnc2C(F)(F)F)c2cccnc2n1 [Example 204, 1-(4-fluorophenyl)-3-(4-(((2-(trifluoromethyl)pyridin-3-yl)methyl)amino)pyrido[2,3-d]pyrimidin-2-yl)urea] | 10 to 100 |
| O=C(Nc1cccc(F)c1)Nc1nc(NCc2cccnc2C(F)(F)F)c2cccnc2n1 [Example 205, 1-(3-fluorophenyl)-3-(4-(((2-(trifluoromethyl)pyridin-3-yl)methyl)amino)pyrido[2,3-d]pyrimidin-2-yl)urea] | 10 to 100 |
| O=C(Nc1nc(NCc2cccnc2C(F)(F)F)c2cccnc2n1)Nc1ccccc1F [Example 206, 1-(2-fluorophenyl)-3-(4-(((2-(trifluoromethyl)pyridin-3-yl)methyl)amino)pyrido[2,3-d]pyrimidin-2-yl)urea] | 100 to 1000 |
| CCNC(=O)Nc1nc(NCc2cccnc2C(F)(F)F)c2cccnc2n1 [Example 207, 1-ethyl-3-(4-(((2-(trifluoromethyl)pyridin-3-yl)methyl)amino)pyrido[2,3-d]pyrimidin-2-yl)urea] | 100 to 1000 |
| C[C@H]1COCCN1c1nc(NCc2ccccc2C(F)(F)F)c2cccnc2n1 [Example 208, (S)-2-(3-methylmorpholino)-N-(2-(trifluoromethyl)benzyl)pyrido[2,3-d]pyrimidin-4-amine] | < 0.01 |
| C[C@@H]1COCCN1c1nc(NCc2ccccc2C(F)(F)F)c2cccnc2n1 [Example 209, (R)-2-(3-methylmorpholino)-N-(2-(trifluoromethyl)benzyl)pyrido[2,3-d]pyrimidin-4-amine] | 10 to 100 |
| C[C@H]1COCCN1c1nc(NCc2cccnc2C(F)(F)F)c2cccnc2n1 [Example 210, (S)-2-(3-methylmorpholino)-N-((2-(trifluoromethyl)pyridin-3-yl)methyl)pyrido[2,3-d]pyrimidin-4-amine] | 1 to 10 |
